Entries after “also recorded” stand apart in the source; their conditions may differ. Values belong to the compound of their own block, whether it stands above or below them.
Assays:
[1] = biological target: T1, sEH (Homo sapiens, UniProt P34913); experiment: Inhibition of sEH, assay not specified; type: biochemical
T1 sequence (P34913 1-555): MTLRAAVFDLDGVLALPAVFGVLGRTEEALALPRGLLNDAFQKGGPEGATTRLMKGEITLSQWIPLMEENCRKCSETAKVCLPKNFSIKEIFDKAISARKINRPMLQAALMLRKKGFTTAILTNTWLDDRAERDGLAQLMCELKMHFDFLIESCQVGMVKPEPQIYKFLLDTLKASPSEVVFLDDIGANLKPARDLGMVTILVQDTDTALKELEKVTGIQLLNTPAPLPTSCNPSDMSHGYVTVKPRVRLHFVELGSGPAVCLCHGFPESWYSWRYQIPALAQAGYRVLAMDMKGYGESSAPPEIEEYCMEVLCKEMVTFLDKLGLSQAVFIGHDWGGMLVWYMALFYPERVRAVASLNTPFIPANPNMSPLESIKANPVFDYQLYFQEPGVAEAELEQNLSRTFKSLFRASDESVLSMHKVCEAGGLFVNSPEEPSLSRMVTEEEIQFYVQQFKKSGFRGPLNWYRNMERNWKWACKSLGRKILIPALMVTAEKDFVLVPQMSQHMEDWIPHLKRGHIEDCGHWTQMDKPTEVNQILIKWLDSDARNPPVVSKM
Description: “Soluble epoxide hydrolase” (“sEH”) is an epoxide hydrolase which in endothelial and smooth muscle cells converts EETs to dihydroxy derivatives called dihydroxyeicosatrienoic acids (“DHETs”). The cloning and sequence of the murine sEH is set forth in Grant et al., J. Biol. Chem. 268(23):17628-17633 (1993). The cloning, sequence, and accession numbers of the human sEH sequence are set forth in Beetham et al., Arch. Biochem. Biophys. […] The amino acid sequence of human sEH is SEQ ID NO.:1, while the nucleic acid sequence encoding the human sEH is SEQ ID NO.:2. […] Unless otherwise specified, as used herein, the terms “soluble epoxide hydrolase” and “sEH” refer to human sEH.
Derivatives of urea are transition state mimetics that form a preferred group of sEH inhibitors. […] Any particular urea derivative or other compound can be easily tested for its ability to inhibit sEH by standard assays, such as those discussed herein. The production and testing of urea and carbamate derivatives as sEH inhibitors is set forth in detail in, for example, Morisseau et al., Proc Natl Acad Sci (USA) 96:8849-8854 (1999).
Any of a number of standard assays for determining epoxide hydrolase activity can be used to determine inhibition of sEH. […] Suitable in vitro assays are described in Zeldin et al., J Biol. Chem. 268:6402-6407 (1993). […]

[2] = test system: healthy rats; experiment: Intraplantar tunicamycin (Tm) induced pain model, mechanical withdrawal; type: in vivo, rat
Description: (§1) FIGS. 7A-F illustrate that ER stress inducer tunicamycin (Tm) is rapid, intense and selective in generating pain behavior. (A) Tm is administered into the midsection of one hind paw in a volume of 10 μL (20 μg). Mechanical withdrawal of ipsi- and contralateral paws are then monitored over a period of 6 h until the ipsilateral paw measurements returned to baseline values. The withdrawal data are presented as gram force required for inducing a withdrawal reflex response. (B) Decreasing doses of Tm generated less intense allodynia which subsided faster than the highest dose. […] (D) Intraplantar Tm induced pain is reversible with sEH inhibitor (lh prior to Tm, i.p. administration) in a dose dependent manner. (E) Expectedly this pain is reversible with chemical chaperone 4-PBA. The basis for the increase above the baseline threshold in this group is not investigated.

[3] = test system: healthy rats; experiment: Intraplantar Tm, thermal withdrawal threshold (modified Hargreaves' test); type: in vivo, rat
Description: as §1

[4] = test system: healthy rats; experiment: von Frey mechanical withdrawal threshold in healthy rats; conditions: 4-PBA 40 mg/kg
[5] = test system: type I diabetic rats; experiment: STZ induced type I diabetic rat neuropathic pain model, electronic von Frey test; conditions: for Drug reduction index: combination of 4-PBA and TPPU, CompuSyn
[6] = test system: healthy rats; experiment: Intraplantar dimethylcelecoxib (DMCx) induced pain model; type: in vivo, rat
Description: FIGS. 9A-C illustrate that mechanistically different ER stress inducer dimethylcelecoxib (DMCx) generates a rapid and intense but sEHI and cox-2 inhibitor reversible pain phenotype. (A) DMCx is administered into the midsection of one hind paw in a volume of 10 μL (20 μg). Mechanical withdrawal of ipsi- and contralateral paws are then monitored over a period of 4 h. The withdrawal data are presented as gram force required for inducing a withdrawal reflex response. (B) Intraplantar DMCx induced pain is reversible with sEH inhibitor (1 h prior to Tm, i.p. administration) in a dose dependent manner.

Activity on sEH [1]: particularly high activity
Compound: CCCCCCCCCCCCNC(=O)NC12CC3CC(CC(C3)C1)C2 [ADU, N-Adamantyl-N′-dodecyl urea]

Compound: tunicamycin [Tm]
Induction of pain by intraplantar administration ([2]; hind paw of healthy rats): induce a significant degree of pain | Swelling after intraplantar administration ([2]; intraplantar Tm): Minimal amount of swelling | Mechanical withdrawal threshold after Tm ([2]; intraplantar, 20 μg, ipsilateral paw): 25 % of the baseline levels | Heat responses / thermal withdrawal threshold of the ipsilateral paw [3]: rapid and sustained loss of heat responses; also recorded: notable increase in thermal withdrawal threshold

Compound: O=C(O)CCCc1ccccc1 [Compound 4-PBA, 4-phenyl butyric acid]
Reversal of Tm induced sensitivity to mechanical stimuli ([2]; pre-administration i.p. 1 h prior to Tm, celecoxib 30 mg/kg): reversed; also recorded: reversible | Acute mechanical withdrawal threshold in healthy rats [4]: not antinociceptive; also recorded: does not result in change of acute mechanical withdrawal threshold | Drug reduction index ([5]; at ED50): 2.2 fold | Drug reduction index ([5]; at ED97): 3.9 fold | Allodynia / antinociception (von Frey withdrawal threshold) ([5]; diabetic rats, i.p., 4-PBA 10-100 mg/kg, TPPU 0.01-1 mg/kg): dose and time dependent antinociception occurs within minutes; also recorded: reduce allodynia in a dose and time dependent manner | Antinociceptive efficacy at the highest dose ([5]; diabetic rats, systemic delivery, highest dose): full efficacy and rapid onset | Effect on pain-related behavior at 10 mg/kg ([5]; type I diabetic rats, 10 mg/kg, 6 h time period): ineffective

Swelling after intraplantar administration [6]: Swelling of the ipsilateral paw
Compound: Cc1ccc(C)c(-c2cc(C(F)(F)F)nn2-c2ccc(S(N)(=O)=O)cc2)c1 [DMCx, dimethyl-celecoxib]
